Literature values, collected in US11877998B2, “Supplement composition” (H & H SCIENCE, LLC, priority 2017, dated 2024).

Legend:
nonmelanoma skin cancer = conditions: oral, high risk group
[1] = test system: retinol-binding proteins (RBPs); conditions: acne patients, oral, after four weeks
hair growth = conditions: men taking supplements

Row | Compound | serum levels of retinol-binding proteins (RBPs) [1] | also measured
1 | O=C(O)c1cccnc1 [oral niacin, niacin] | – | reduction of nonmelanoma skin cancer (nonmelanoma skin cancer): by a quarter
2 | [Zn] [zinc] | not observed | –
3 | vitamin A [oral vitamin A] | not observed | –
4 | vitamin E | – | hair growth versus placebo (hair growth): grew more hair
